We go through 17 molecules from patent US8394786B2, “Quinazoline derivatives” (Janssen Pharmaceutica N.V., priority 2003, dated 2013).

The target of one test is EGFR (Homo sapiens, UniProt P00533). The test is described as follows: In vitro inhibition of EGFR, Flash Plate or glass-fiber filter technology (C2). It is filed as biochemical. Further details: 0.5 μg EGFR-kinase domain/well. The settings on record: EGFR-kinase domain, 5.0 μM unlabeled ATP; for IC50: read-out: Kinase activity.(C2): pIC50 (converted). As for the experimental part:
The in vitro inhibition of EGFR was assessed using either the Flash Plate technology or the glass-fiber filter technology as described by Davies, S. P. et al., Biochem J. (2000), 351; p. 95-105. The Flash Plate technology is generally described by B. A. Brown et al. in High Throughput Screening (1997), p. 317-328. Editor(s): Devlin, John P. Publisher: Dekker, New York, N.Y.
In the Flash Plate EGFR kinase reaction assay, a kinase substrate consisting of biotinylated poly(L-glutamic acid-L-tyrosine) (poly(GT)biotin), is incubated with the aforementioned protein in the presence of (^33P) radiolabeled ATP. (^33P) phosphorylation of the substrate is subsequently measured as light energy emitted using a streptavidin-coated Flash Plate (PerkinElmer Life Sciences) by trapping and quantifying the binding of the biotin tagged and radiolabeled substrate.
The EGFR kinase reaction is performed at 30° C. for 60 minutes in a 96-well microtiter FlashPlate (PerkinElmer Life Sciences). For each of the tested compounds a full dose response 1·10^−6M to 1·10^−10M has been performed. IRESSA° and Tarceva™ (erlotinib) were used as reference compounds. The 100 μl reaction volume contains 54.5 mM TrisHCl pH 8.0, 10 mM MgCl2, 100 μM Na3VO4, 5.0 μM unlabeled ATP, 1 mM DTT, 0.009% BSA, 0.8 μCi AT^33P, 0.35 μg/well poly(GT)biotin and 0.5 μg EGFR-kinase domain/well.
The reaction is stopped by aspirating the reaction mixture and washing the plate 3× with 200 μl wash/stop buffer (PBS+100 mM EDTA). After the final wash step 200 μl of wash/stop buffer was added to each well and the amount of phosphorylated (^33P) Poly(GT)biotin determined by counting (30 sec/well) in a microtiterplate scintillation counter.
In the glass-fiber filter technology EGFR kinase reaction assay, a kinase substrate consisting of poly(L-glutamic acid-L-tyrosine) (poly(GT)), is incubated with the aforementioned protein in the presence of (^33P) radiolabeled ATP. (^33P) Phosporylation of the substrate is subsequently measured as radioactivity bound on a glassfiber-filter.
The EGFR kinase reaction is performed at 25° C. for 10 minutes in a 96-well microtiterplate. For each of the tested compounds a full dose response 1·10^−6M to 1·10^−10M has been performed. IRESSA° and Tarceva™ (erlotinib) were used as reference compounds. The 25 μl reaction volume contains 60 mM TrisHCl pH 7.5, 3 mM MgCl2, 3 mM Mn Cl2, 3 μM Na3VO4, 50 μg/ml PEG20000, 5.0 μM unlabeled ATP, 1 mM DTT, 0.1 μCi AT^33P, 62.5 ng/well poly(GT) and 0.5 μg EGFR-kinase domain/well.
The reaction is stopped by adding 5 μl of a 3% phosphoric acid solution. 10 μl of the reaction mixture is then spotted onto a Filtermat A filter (Wallac) and washed 3 times for 5 min. in 75 mM phosphoric acid and 1 time for 5 min. in methanol prior to drying and quantification on the Typhoon (Amersham) using a LE phosphorage storage screen.

The test system of a further test is SKOV3 cells. The test is described as follows: Serum starved proliferation assay on the ovarian carcinoma SKOV3 cells (C3). The test is classed as cell-based. As to conditions: EGF stimulated (100 ng/ml, 72 hours, serum free) or 72 hours with compounds, MTT cell viability assay; for IC50: Homo sapiens, SK-OV-3, 72 h, read-out: SKOV3 cell (C3): pIC50 (converted). The procedure:
The ovarian carcinoma cell line (SKOV3) was used in an epidermal growth factor stimulated cell proliferation assay, to assess the inhibitory effect of the compounds on EGF in whole cells.
In a first step the SKOV3 cells were incubated for 24 hours in the presence of 10% FCS serum. In the second step the cells were incubated with the compounds to be tested in a serum free condition (37° C. and 5% (v/v) CO2) and subsequently stimulated for 72 hours with EGF at a final concentration of 100 ng/ml. The effect of the compounds on the EGF stimulation was finally assessed in a standard MTT cell viability assay.
Alternatively, the SKOV3 cells were incubated for 24 hours in the presence of 10% FCS serum. In the second step the cells were incubated for 72 hours with the compounds to be tested and the effect of the compounds on cell proliferation was finally assessed in a standard MTT cell viability assay.
(In general: Tetrazolium dyes change colour on reduction, which living cells bring about.)

Turning to “4,6-ethanediylidene-8H-pyrimido[4,5-b][6,1,12,15]benzoxatriazacyclooctadecine-12,15(16H)-dione, 20-chloro-9,10,11,13,14,17,22-heptahydro-23-methoxy-14-methyl- [Compound 139]”, on EGFR, the “Kinase activity.(C2): pIC50” value came to 6.4. The “SKOV3 cell (C3): pIC50” value in the test on SKOV3 cells turned out to be 6.8. Take “4,6-ethanediylidene-12H-pyrimido[4,5-b]pyrrolo[2,1-1][6,1,10,13]benzoxatriazacyclohexadecin-12-one, 20-chloro-19-fluoro-8,9,10,11,12a,13,14,15,17,22-decahydro-23-methoxy- [Compound 103]”: the “Kinase activity.(C2): pIC50” value at EGFR came to 7.2. For the same molecule, the “SKOV3 cell (C3): pIC50” value in the test with SKOV3 cells turned out to be 7.3. The corresponding values for “4,6-ethenopyrimido[4,5-b][6,1,9,14]benzoxatriazacycloheptadecine-9,14(8H,15H)-dione, 19-chloro-10,11,12,13,16,21-hexahydro-22-methoxy- [Compound 150]” are 7.7 and 5.1. For `COc1cc2ncnc3c2cc1OCCCCNCCc1ccc(Cl)cc1N3` [Compound 32, 4,6-ethanediylidenepyrimido[4,5-b][6,1,11]benzoxadiazacyclopentadecine, 17-chloro-8,9,10,11,12,13,14,19-octahydro-20-methoxy-], the IC50 at EGFR was 3.98 nM; with SKOV3 cells, 288 nM. The corresponding values for `COc1cc2ncnc3c2cc1OCCNCC(=O)NCCCc1ccc(Cl)cc1N3` [Compound 42, 4,6-ethanediylidenepyrimido[4,5-b][6,1,9,12]benzoxatriazacycloheptadecin-12(13H)-one, 19-chloro-8,9,10,11,14,15,16,21-octahydro-22-methoxy-] are 501 nM and 63.1 nM. The corresponding values for `COc1cc2ncnc3c2cc1OCCN(C(=O)CN(C)CCO)CC(=O)NCCCc1ccc(Cl)cc1N3` [Compound 43, 4,6-ethanediylidenepyrimido[4,5-b][6,1,9,12]benzoxatriazacycloheptadecin-12(13H)-one, 19-chloro-8,9,10,11,14,15,16,21-octahydro-10-[[(2-hydroxyethyl)methylamino]acetyl]-22-methoxy-] are 79.4 nM and 501 nM. The corresponding values for `COc1cc2ncnc3c2cc1OCCN(C(=O)CNC(CO)CO)CC(=O)NCCCc1ccc(Cl)cc1N3` [Compound 44, 4,6-ethanediylidenepyrimido[4,5-b][6,1,9,12]benzoxatriazacycloheptadecin-12(13H)-one, 19-chloro-8,9,10,11,14,15,16,21-octahydro-10-[[[2-hydroxy-1-(hydroxymethyl)ethyl]amino]acetyl]-22-methoxy-] are 631 nM and 7940 nM. With `COc1cc2ncnc3c2cc1OCCN(C(=O)CN1CCOC(CO)C1)CC(=O)NCCCc1ccc(Cl)cc1N3` (stereo not shown) [Compound 45, 4,6-ethanediylidenepyrimido[4,5-b][6,1,9,12]benzoxatriazacycloheptadecin-12(13H)-one, 19-chloro-8,9,10,11,14,15,16,21-octahydro-10-[[2-(hydroxymethyl)-4-morpholinyl]acetyl]-22-methoxy-], the IC50 on EGFR was 158 nM; in the test on SKOV3 cells, 10000 nM. `COc1cc2ncnc3c2cc1OCCN(C(=O)CNCCc1ccncc1)CC(=O)NCCCc1ccc(Cl)cc1N3` [Compound 46, 4,6-ethanediylidenepyrimido[4,5-b][6,1,9,12]benzoxatriazacycloheptadecin-12(13H)-one, 19-chloro-8,9,10,11,14,15,16,21-octahydro-22-methoxy-10-[[[2-(4-pyridinyl)ethyl]amino]acetyl]-]: the IC50 at EGFR is 200 nM; with SKOV3 cells it was 7940 nM.

Take `COc1cc2ncnc3c2cc1OCCN(C(=O)CN(C)CCN(C)C)CC(=O)NCCCc1ccc(Cl)cc1N3` [Compound 47, 4,6-ethanediylidenepyrimido[4,5-b][6,1,9,12]benzoxatriazacycloheptadecin-12(13H)-one, 19-chloro-10-[[[2-(dimethylamino)ethyl]methylamino]acetyl]-8,9,10,11,14,15,16,21-octahydro-22-methoxy-]: the IC50 at EGFR is 126 nM; with SKOV3 cells, 1580 nM. The corresponding values for `COCCNCC(=O)N1CCOc2cc3c(ncnc3cc2OC)Nc2cc(Cl)ccc2CCCNC(=O)C1` [Compound 48, 4,6-ethanediylidenepyrimido[4,5-b][6,1,9,12]benzoxatriazacycloheptadecin-12(13H)-one, 19-chloro-8,9,10,11,14,15,16,21-octahydro-22-methoxy-10-[[(2-methoxyethyl)amino]acetyl]-] are 316 nM and 1580 nM. Consider `COc1cc2ncnc3c2cc1OCCN(C(=O)CN1CCN(C)CC1)CC(=O)NCCCc1ccc(Cl)cc1N3` [Compound 51, 4,6-ethanediylidenepyrimido[4,5-b][6,1,9,12]benzoxatriazacycloheptadecin-12(13H)-one, 19-chloro-8,9,10,11,14,15,16,21-octahydro-22-methoxy-10-[(4-methyl-1-piperazinyl)acetyl]-], for which, in the test with SKOV3 cells, the IC50 is 398 nM.

As for `COc1cc2ncnc3c2cc1OCCCC=CCC(NC(=O)OC(C)(C)C)C(=O)NCc1ccc(Cl)cc1N3` (stereo not shown) [Compound 110, carbamic acid, (20-chloro-9,10,13,14,15,16,17,22-octahydro-23-methoxy-15-oxo-4,6-ethanediylidene-8H-pyrimido[4,5-b][6,1,15]benzoxadiazacyclooctadecin-14-yl)-, 1,1-dimethylethyl ester], the IC50 at EGFR was 3980 nM. Regarding `CCC(C)C1NC(=O)COc2cc3c(ncnc3cc2OC)Nc2ccccc2CNC1=O` (stereo not shown) [Compound 124, 4,6-ethanediylidenepyrimido[4,5-b][6,1,9,12]benzoxatriazacyclopentadecine-9,12(8H,13H)-dione, 10,11,14,19-tetrahydro-20-methoxy-11-(1-methylpropyl)-], in the test with SKOV3 cells, the IC50 was 10000 nM. Consider `COc1cc2ncnc3c2cc1OCC(=O)NC(C)(C)C(=O)NCc1ccc(Cl)cc1N3` [Compound 132, 4,6-ethanediylidenepyrimido[4,5-b][6,1,9,12]benzoxatriazacyclopentadecine-9,12(8H,13H)-dione, 17-chloro-10,11,14,19-tetrahydro-20-methoxy-11,11-dimethyl-], for which the IC50 in the test on SKOV3 cells is 10000 nM.

As to `COc1cc2ncnc3c2cc1OCC(=O)NCC(=O)NCc1ccccc1N3` [Compound 156, 4,6-ethanediylidenepyrimido[4,5-b][6,1,9,12]benzoxatriazacyclopentadecine-9,12(8H,13H)-dione, 10,11,14,19-tetrahydro-20-methoxy-], the IC50 in the test with SKOV3 cells is 10000 nM. With `COc1cc2ncnc3c2cc1OCC(=O)NCCC(=O)NCc1ccccc1N3` [Compound 157, 4,6-ethanediylidene-8H-pyrimido[4,5-b][6,1,9,13]benzoxatriazacyclohexadecine-9,13(10H,14H)-dione, 11,12,15,20-tetrahydro-21-methoxy-], the IC50 in the test on SKOV3 cells is 10000 nM.
